Assay results published in patent US10954306B2 (priority 2015, dated 2021).
Where no end group is shown, it is not given here.

Experiments:
[1] = test system: antibody (polyclonal anti-T14); assay: ELISA motif determination with linear peptide variants; type: binding, rabbit; conditions: 100 nM peptide, FIGS. 5-10
Protocol: The standard curves and the samples were run in triplicate. For the detection of T14, Pep4, T15 and amyloid, 8 nanomolar concentrations of each were used for the ELISA. On the other hand, for the motif determination experiment, only one concentration of each of the peptide variants was used of 100 nM. For the detection of T14 on rat brain samples, different dilutions of the protein were used. […] The standard curve for determination of T14 peptide in brain tissue and the brain tissue samples were diluted in PBS buffer. The standard curves ranged from 8 to 100 nM of T14. Briefly, 96-well immunoplates (NUNC) were coated with 100 μl/well of sample or standard T14, covered with parafilm and incubated overnight at 4° C. The following day the sample was removed by flicking the plate over a sink with running water, and 200 μl of the blocking solution containing 2% Bovine Serum Albumin (BSA) in Tris-Buffered Saline and Tween 20 (TBS-T) was added and incubated for 4 h at room temperature. Blocking solution was then removed and 100 μl of antibody, diluted in blocking solution to 1 μg/ml, was added and incubated overnight at 4° C. The primary antibody was removed the next day and wells were washed 3 times with 200 μl of TBS-T. After, 100 μl of secondary antibody diluted in blocking solution to […] was added and incubated for 2 h at room temperature; the plate was covered with parafilm during all incubations. After 2 h, the plate was washed 4 times with TBS-T. The addition of 3,3,5,5-tetramethylbenzidine started the colour reaction.
The inventors investigate the immunospecificity of the antibody of the invention by carrying out binding experiments with a series of different linear peptides.

[2] = T14 aggregation by WB and ELISA; type: physicochemical; conditions: 200 μM, neutralised PBS, 0-4 hours at 25° C.
Protocol: Exogenous T14 stock solution (20 mM) solution was created by resuspension in distilled water. Subsequently, stock solution was diluted to a working stock solution (400 μM) with PBS (pH 10.5). Aggregation was initiated by neutralising the working stock solution by adding PBS (pH 5) to create a final concentration of 200 μM, which was incubated for 0, 1, 2, 3, 4 hours at 25° C. Moreover, T14 monomer control was created by diluting the working stock with PBS (pH 10.5) to 200 μM and incubating at 25° C. for 4 hours. A further no peptide control was created by mixing together pH 5 and pH 10.5 PBS and incubating at 25° C. for 4 hours. WB (A) and ELISA (B) were then conducted on the above T14 aggregation samples and quantified;

rat brain slices = conditions: cited from earlier work
[3] = test system: compensatory AChE release; conditions: cited from earlier work
α7 nicotinic-receptor = α7 nicotinic-receptor (Homo sapiens, UniProt P36544); conditions: cited from earlier work
α7 nicotinic-receptor, sequence (P36544 23-502): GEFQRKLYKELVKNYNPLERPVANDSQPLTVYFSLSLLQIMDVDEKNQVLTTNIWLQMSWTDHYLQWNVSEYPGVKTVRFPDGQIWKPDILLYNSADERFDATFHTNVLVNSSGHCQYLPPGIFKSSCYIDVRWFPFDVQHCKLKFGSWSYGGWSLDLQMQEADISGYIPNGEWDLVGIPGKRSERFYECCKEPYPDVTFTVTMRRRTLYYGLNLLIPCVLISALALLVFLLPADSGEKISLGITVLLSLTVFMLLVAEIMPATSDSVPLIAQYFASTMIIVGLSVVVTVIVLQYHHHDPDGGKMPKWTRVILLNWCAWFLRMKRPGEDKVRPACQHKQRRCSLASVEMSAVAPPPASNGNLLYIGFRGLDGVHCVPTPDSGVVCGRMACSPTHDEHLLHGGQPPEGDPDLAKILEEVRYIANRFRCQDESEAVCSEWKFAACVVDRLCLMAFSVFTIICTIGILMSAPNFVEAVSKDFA

AEFHRWSSYMVHWK [Peptide T14]
recognition of the peptide by the antibody (ELISA) [1]: strongly binds | T14 aggregation [2]: grows exponentially | T14 monomer pool [2]: remains unchanged

EFHRWSSYMVHWK [Peptide 1305]
recognition of the peptide by the antibody (ELISA) [1]: strongly binds

FHRWSSYMVHWK [Peptide 1206]
recognition of the peptide by the antibody (ELISA) [1]: strongly binds

HRWSSYMVHWK [Peptide 1107]
recognition of the peptide by the antibody (ELISA) [1]: strongly binds

NBP14 (AEFHRWSSYMVHWK; not fully specified)
effect on Ca2+ concentrations (rat brain slices; given alone): no significant effect | effect on Ca2+ concentrations in presence of T30 (rat brain slices; with T30): blocks the effects of T30 | compensatory AChE release induced by the toxicity of linear T14 and T30 [3]: blocks | protection of cells from linear T14, T30 and β-amyloid toxicity (α7 nicotinic-receptor): protect cells
